Source: patent publication US8688227B2, “Suction electrode-based medical instrument and system including the medical instrument for therapeutic electrotherapy” (Old Dominion Research Foundation, priority 2007, dated 2014)
Read-outs that look alike come from different tables or passages of the source.

Key:
[1] = tested on: GH3 or HeLa cells; assay: PI uptake, positive control for permeabilization; format: cell-based; conditions: 0.03% added into the bath
Experimental: Moreover, the cells remained impermeable to PI even after extra-long trains of 200 pulses, which caused necrotic changes in cells morphology, and even when the observation period was extended to 30-60 min after the exposure.

[2] = tested on: hippocampal CA1 neurons; conditions: cited from earlier work
[3] = tested on: nsPEF-exposed cells; assay: Whole-cell patch clamp of membrane conductance/resistance after nsPEF exposure; format: cell-based
Experimental: Experiments were performed in GH3 cells (a murine pituitary cell line) and HeLa cells (human epithelial cancer), both obtained from American Type Culture Collection (ATCC, Manassas, Va.) and cultured according to their recommendations. Cells were grown in 75-cm2 flasks at 37° C. with 5% CO2 in air. GH3 cells were cultured in Ham's F12K medium supplemented with 2.5% fetal bovine serum (FBS) and 15% horse serum (Atlanta Biologicals, Norcross, Ga.). HeLa cells were propagated in Eagle minimum essential medium with 10% FBS. The cultures also contained 1% L-glutamine and 1% penicillin/streptomycin (Mediatech Cellgro, Herndon, Va.). For passaging, cells were removed from the substrate with 2-3 ml of 0.25% Trypsin with 2.21 mM EGTA. The cultures were maintained in the logarithmic stage of growth and used at passages 3-15. For a passage immediately preceding the experiments, cells were grown attached to 8- or 10-nun diameter glass cover slips in 35-mm Petri dishes. The cover slips were pretreated with poly-1-lysine (Sigma-Aldrich, St. Louis, Mo.) to improve cell adherence.
These pairs were formulated to explore, in the first approximation, how different ion substitutions would affect Gm and the reversal potential (Erev) after nsPEF exposure. Two pairs (Cs/Na and Cs/Ba-TEA) were also used to explore nsPEF effects on voltage-gated Na^+ and Ca^2+ channels, respectively. In general, solution pairs from the top to the bottom of the Table 1 contain diminishing amounts and variety of monovalent ions, i.e., K and/or Na were replaced with larger cs^+, TEA^+, or NMDG^+. The contents of anions (C1 and HEPES) were kept almost constant and the same in bath and pipette solutions, except for the last pair, where most of the pipette C1 was replaced with HEPES^−. The pH of pipette and bath solutions was adjusted to 7.4 and 7.2, respectively; the ionic contents shown in Table 1 already include any extra amounts of ions added as a base or acid for pH adjustment. The osmolality of all solutions was between 290 and 320 mOsm, as measured with a freezing point microosmometer (Advanced Instruments, Inc., Norwood, Mass., USA).
Patch clamp recording: Cells on a cover slip were transferred into a glass-bottomed chamber (Warner Instruments, Hamden, Conn.) mounted on a motorized stage (Prior Scientific Inc., Rockland, Mass.) of an IX71 FluoView™ 300 confocal laser scanning microscope. […] The data from these experiments were analyzed differently (see below). […]
Once the whole-cell configuration was formed, the membrane resistance and capacitance (Rm and Cm) were measured using the Membrane Test utility of pClamp1 0 software. […] The membrane potential (MP) was measured by switching briefly from voltage to current clamp mode at I=0. […]

[4] = tested on: liver cells; conditions: oxidative stress-activated NSCCs; cited from earlier work

Structure (SMILES): C[C@@H]1CC[C@@]2(OC1)O[C@H]1[C@@H](O)[C@H]3[C@@H]4CC[C@H]5C[C@@H](O[C@@H]6O[C@H](CO)[C@H](O[C@@H]7O[C@H](CO)[C@@H](O)[C@H](O[C@@H]8OC[C@@H](O)[C@H](O)[C@H]8O)[C@H]7O[C@@H]7O[C@H](CO)[C@H](O)[C@H](O[C@@H]8O[C@H](CO)[C@@H](O)[C@H](O)[C@H]8O)[C@H]7O)[C@H](O)[C@H]6O)[C@H](O)C[C@]5(C)[C@H]4CC[C@]3(C)[C@H]1[C@@H]2C [digitonin]
- time to bright PI fluorescence after addition [1]: 1 to 2 min
- permeabilization, PI fluorescence ([1]; PI in the medium): bright PI fluorescence

Structure (SMILES): [Cl][La]([Cl])[Cl] [La^3+]
- swelling and other deleterious effects of oxygen-glucose deprivation ([2]; 100 AM): reduced swelling

Structure (SMILES): N.N.N.N.N.N.N.N.N.N.N.N.N.N.[Cl-].[Cl-].[Cl-].[Cl-].[Cl-].[Cl-].[O-2].[O-2].[Ru+3].[Ru+3].[Ru+4] [ruthenium red]
- membrane conductance increase by nsPEF ([3]; 10 p.M in bath of K/Na pair, prior to 1 or 5 pulses): neither enhanced nor inhibited
- effect on control (sham-exposed) cells ([3]; 50 and 200 μM in bath of K/Na pair): no apparent effect
- condition of nsPEF-exposed cells ([3]; 50 and 200 μM in bath of K/Na pair, prior to 1 or 5 pulses): worsened the condition
- swelling and other deleterious effects of oxygen-glucose deprivation ([2]; 1 ilM): reduced swelling

Structure (SMILES): [Cl][Gd]([Cl])[Cl] [Gd^3+]
- number of necrotic cells [4]: sharply decreased
- protective effect against nsPEF ([3]; 0.2 mM, first trials): no protection
- swelling and other deleterious effects of oxygen-glucose deprivation ([2]; 100 AM): reduced swelling
